Experimental data from patent US6913878B2, “Method of detecting DNA single strand breaks” (The University of North Carolina at Chapel Hill, priority 2003, dated 2005).

What was measured:
[1] = test system: PARP-1+/+ immortalized embryonic fibroblasts; assay: Intracellular NAD(P)H assay (WST-8) in PARP-1+/+ fibroblasts; type: cell-based, mouse; details: PARP-1+/+ cells, MMS 4 hours (FIG. 4A)
Protocol: (§1) XRCC1-proficient and -deficient CHO cells (Taylor, et al. (2002) Mol. Cell. Biol. 22:2556-2563) were cultured as monolayers in alpha-minimal essential medium (INVITROGEN™, Carlsbad, Calif.) supplemented with 10% fetal bovine serum (Sigma-Aldrich, St. Louis, Mo.), 100 μg/mL penicillin, and 100 μg/mL streptomycin. Immortalized mouse embryonic fibroblasts derived from PART-1^+/+ and PARP-1^−/− were maintained in Dulbecco's modified Eagle's medium, 4.5 g/Liter glucose medium (INVITROGEN™, Carlsbad, Calif.) supplemented with 10% fetal bovine serum and 0.5% gentamicin (Schreiber, et al. (2002) J. Biol. Chem. 277:23028-23036). […]
(§2) A water-soluble tetrazolium salt was used to measure the amount of intracellular NAD(P)H through the reduction to a formazan dye. The total amount of NAD(P)H within viable cells in the medium was determined periodically by a spectrophotometer. […] WST-8 produced a water-soluble yellow-colored formazan dye through its bioreduction either in the presence of an electron carrier, such as 1-Methoxy PMS, Diaphorase, a flavoenzyme, or directly by NAD(P)H. Therefore, the reduction of tetrazolium salts predominantly depends on the amount of intracellular NAD(P)H. The amount of formazan dye produced by the living cells in the medium was determined approximately every 30 minutes by a spectrophotometer and compared to the values of the control. […]

[2] = test system: EM9-XH5 cells (CHO EM9 cells expressing wild-type human XRCC1); assay: Intracellular NAD(P)H assay with water-soluble tetrazolium salt WST-8 (CCK-8); type: cell-based, Chinese hamster
Protocol: (§3) XRCC1-proficient and -deficient CHO cells (Taylor, et al. (2002) Mol. Cell. Biol. 22:2556-2563) were cultured as monolayers in alpha-minimal essential medium (INVITROGEN™, Carlsbad, Calif.) supplemented with 10% fetal bovine serum (Sigma-Aldrich, St. Louis, Mo.), 100 μg/mL penicillin, and 100 μg/mL streptomycin. Immortalized mouse embryonic fibroblasts derived from PART-1^+/+ and PARP-1^−/− were maintained in Dulbecco's modified Eagle's medium, 4.5 g/Liter glucose medium (INVITROGEN™, Carlsbad, Calif.) supplemented with 10% fetal bovine serum and 0.5% gentamicin (Schreiber, et al. (2002) J. Biol. Chem. 277:23028-23036). Human lymphoblastoid cells (GM15030, GM15061, GM15237, GM15268, GM15339, GM15349, GM15365, and GM15380; Coriell Cell Repositories, Camden, N.J.) were grown in RPMI 1640 medium (INVITROGEN™, Carlsbad, Calif.) supplemented with 15% fetal bovine serum (Sigma-Aldrich, St. Louis, Mo.), 100 μg/mL penicillin, and 100 μg/mL streptomycin. The cells were maintained in a humidified atmosphere of 5% CO2 and 95% air at 37° C.
(§4) A water-soluble tetrazolium salt was used to measure the amount of intracellular NAD(P)H through the reduction to a formazan dye. The total amount of NAD(P)H within viable cells in the medium was determined periodically by a spectrophotometer. Cells were seeded into 96-well plates (CHO cells and mouse fibroblasts: 5×10^3 cells/well; lymphoblastoid cells: 15×10^3 cells/well) and were cultured in 100 μL of medium with fetal bovine serum and antibiotics as described. After a 30-minute incubation, cells were treated with MMS at indicated concentrations and 1/10 volume of CCK-8 solution (Dojindo Molecular Technology, Gaithersburg, Md.) which consisted of a water-soluble 2-(2-methoxy-4-nitrophenyl)-3-(4-nitrophenyl)-5-(2,4-disulfophenyl)-2H-tetrazolium monosodium salt (WST-8; 5 mM) and 1-Methoxy-5-methylphenazinium methylsulfate (1-Methoyx PMS; 0.2 mM) as an electron mediator. Cells in each well were further cultured for up to 4 hours. WST-8 produced a water-soluble yellow-colored formazan dye through its bioreduction either in the presence of an electron carrier, such as 1-Methoxy PMS, Diaphorase, a flavoenzyme, or directly by NAD(P)H. Therefore, the reduction of tetrazolium salts predominantly depends on the amount of intracellular NAD(P)H. The amount of formazan dye produced by the living cells in the medium was determined approximately every 30 minutes by a spectrophotometer and compared to the values of the control. Absorbance was recorded in a 96-well plate reader at 450 nm with a 650 nm reference filter. A medium blank was prepared with only medium and CCK-8 reaction solution. Decreases in the intracellular NAD(P)H were assessed by comparing the absorbance of a well containing cells treated with MMS against that of a well with cells treated with phosphate-buffered saline (PBS) only.
(§5) XRCC1 functions as a scaffold for interaction with other base excision repair-associated proteins including human AP endonuclease (APE1), DNA Pol-β, DNA Ligase III, Polynucleotide Kinase (PNK), and PARP-1 (Caldecott, et al. (1996) Nucl. Acids Res. 24:4387-4394; Whitehouse, et al. (2001) Cell 104:1-11; Kubota, et al. (1996) EMBO J. 15:6662-6670; Caldecott, et al. (1994) Mol. Cell. Biol. 14:68-76; Caldecott, et al. (1995) Nucl. Acids Res. 23:4836-4843) and is required for efficient single strand break repair and genetic stability in mammalian cells. Rodent cells lacking XRCC1 are hypersensitive to DNA damaging agents (Whitehouse, et al. (2001) Cell 104:1-11; Kubota, et al. (1996) EMBO J. 15:6662-6670; Caldecott, et al. (1994) Mol. Cell. Biol. 14:68-76). […]

[3] = test system: EM9-V cells (XRCC1-deficient CHO EM9 cells expressing empty vector); assay: as above; type: cell-based, Chinese hamster
Protocol: as §3, §4, §5

[4] = test system: EM9-V cells; assay: Intracellular NAD(P)H assay using XTT or MTS; type: cell-based, Chinese hamster
Protocol: (§6) XTT^1) (2,3-bis[2-Methoxy-4-nitro-5-sulfophenyl]-2H-tetrazolium-5-carboxy-anilide inner salt) and MTS^2) (3-(4,5-dimethylthiazol-2-yl)-5-(3-carboxynethoxyphenyl)-2-(4-sulfophenyl)-2H-tetrazolium, inner salt), water-soluble tetrazolium salts, were used to measure the amount of intracellular NAD(P)H through the reduction to a water-soluble formazan dye. EM9-V and XH5 cells were seeded into 96-well plates and were cultured in 100 μL of medium with fetal bovine serum and antibiotics as described (10,000 cells per well). After a 30-minute incubation, cells were treated with DMS (dimethylsulfate) at indicated concentrations and 1/10 volume of either XTT with an electron coupling agents such as phenazine methosulfate (Sigma) or MTS with phenazine methosulfate (Promega). Cells in each well were further cultured for up to 4 hours. Either XTT or MTS produced a water-soluble yellow-colored formazan dye and the absorbance was recorded in a 96-well plate reader at 450 nm with a 650 nm reference filter.
(§7) These cells were exposed to DMS at different concentrations for 2.5 or 4 hours. […] In addition, CHO cells were co-exposed to DMS and PARP inhibitor, 3-aminobenzamide (10 mM) and were applied 1 to 2 hours prior to the DMS treatment and kept in the medium during DMS exposure until the cells were analyzed.

[5] = test system: EM9-XH5 cells; assay: Intracellular NAD(P)H assay using XTT or MTS; type: cell-based, Chinese hamster; details: DMS 4 hours (XTT) or 2.5 hours (MTS) (FIG. 7A, B)
Protocol: as §6, §7

[6] = test system: EM9-V and EM9-XH5 CHO cells; assay: Trypan blue dye-exclusion assay (cell death); type: cell-based, Chinese hamster; details: MMS 0, 0.75, 1.5 mM for 1 and 4 hours; any concentration
Protocol: Cell death was determined with trypan blue staining. Cells were treated with MMS at 0, 0.75, and 1.5 mM for 1 and 4 hours. After trypsinization, cells were stained using a standard trypan blue dye-exclusion assay.

[7] = test system: PARP-1-/- immortalized embryonic fibroblasts; assay: Intracellular NAD(P)H assay (WST-8) in PARP-1-/- fibroblasts; type: cell-based, mouse; details: PARP-1-/- cells, MMS 4 hours, compared with PARP-1+/+ cells (FIG. 4B)
Protocol: as §1, §2

[8] = test system: EM9-V cells; type: cell-based, Chinese hamster; details: immediately after 1 hour MMS treatment (FIG. 5D)
Protocol: A direct comparison was conducted between the method of the invention measuring NAD(P)H and the Comet assay for the detection of single strand breaks. Slides for the Comet assay were prepared using well-known methods (Tennant, et al. (2001) Mutat. Res. 493:1-10). Briefly, slides were dipped into agarose and dried at 60° C. Low melting point agarose (0.5%) was prepared and held at 42° C. Cell suspensions (1×10^4 cells/10 μL) were mixed with 190 μL low melting point agarose. Ninety μL of this suspension was pipetted onto each of two slides and covered with a coverglass. Each slides was placed on ice for 5 minutes, the coverglass was removed, 90 μL of low melting point agarose was pipetted onto each slide, a coverglass was reapplied, and slides were returned to the ice. After 5 minutes, the coverglass was removed and the slides were placed in lysis buffer (pH 11) containing 2.5 M NaCl, 100 mM EDTA-2Na, 10 mM Tris, 1% Na Sarcosinate, 1% TRITON® X-100 and 10% dimethylsulfoxide for 20 minutes. Following lysis, the slides were placed in denaturation buffer (i.e., electrophoresis buffer; 300 mM NaOH, 1 mM EDTA, pH 13). […]
Slides were stained using 35 μL of SYBR GREEN-1™ (MOLECULAR PROBES™, Eugene, Oreg.)(10× in Tris-EDTA buffer pH 8.0) and a coverglass was applied. […] Fifty cells from each of two slides were analyzed by a independent scorer who had no knowledge of the treatment. […]

[9] = test system: Human lymphoblastoid cells (GM15030, GM15061, GM15237, GM15268, GM15339, GM15349, GM15365, GM15380); assay: Intracellular NAD(P)H assay (WST-8) in lymphoblastoid cells; type: cell-based; details: eight healthy individuals, MMS 4 hours (FIG. 6A)
Protocol: as §1, §2

## NC(=O)c1cccc(N)c1 [3-AB, 3-aminobenzamide]
[1]; 3-AB 10 mM
  protection from reduction in NAD(P)H upon exposure to MMS: protected
[2]; 3-AB 10 mM applied 1 to 2 hours before and during MMS, 4 hours (FIG. 3A)
  block of MMS-induced decrease in intracellular NAD(P)H: almost completely blocked
[3]; EM9-V cells, 3-AB 10 mM applied 1 to 2 hours before and during MMS, 4 hours (FIG. 3A)
  block of MMS-induced decrease in intracellular NAD(P)H: almost completely blocked
[4]; 3-AB 10 mM applied 1 to 2 hours before and during DMS, XTT 4 hours or MTS 2.5 hours (FIG. 7A, B)
  block of DMS-induced decrease in intracellular NAD(P)H: completely blocked

## COS(=O)(=O)OC [DMS, dimethylsulfate]
[5]
  intracellular NAD(P)H significantly reduced by treatment with DMS: not
[4]; DMS 4 hours (XTT) or 2.5 hours (MTS), dose-dependent (FIG. 7A, B)
  intracellular NAD(P)H significantly reduced by treatment with DMS: significantly reduced

## O=C1NCCc2c(OCCCCN3CCCCC3)cccc21 [DPQ, 3,4-dihydro-5-[4-(1-piperidinyl)butoxy]-1(2H)-isoquinolinone]
[2]; DPQ 90 μM applied 1 to 2 hours before and during MMS, 4 hours (FIG. 3B)
  block of MMS-induced decrease in intracellular NAD(P)H: almost completely blocked
[3]; EM9-V cells, DPQ 90 μM applied 1 to 2 hours before and during MMS, 4 hours (FIG. 3B)
  block of MMS-induced decrease in intracellular NAD(P)H: almost completely blocked

## COS(C)(=O)=O [MMS, methyl methanesulfonate]
[6]
  cell death (trypan blue exclusion) during MMS treatment: no major cell death
[1]
  NAD(P)H on exposure to MMS: reduced NAD(P)H
[7]
  NAD(P)H on exposure to MMS: more resistant to the decrease in NAD(P)H
[2]; MMS at different concentrations for 4 hours, dose-dependent (FIG. 2A)
  intracellular NAD(P)H on treatment with MMS: significantly reduced
[3]; EM9-V cells, MMS at different concentrations for 4 hours, dose-dependent (FIG. 2A)
  intracellular NAD(P)H on treatment with MMS: significantly reduced
[3]; EM9-V cells, at 1, 2 and 4 hours (FIG. 5A-C)
  lowest MMS concentration at which decrease in intracellular NAD(P)H was detected: ~10 µM
[3]; EM9-V cells, real-time assay, read about every 30 minutes (FIG. 2B)
  earliest time at which reduction of NAD(P)H was detected during MMS exposure: 30 min
[3]; as a function of exposure time with MMS (FIG. 2C)
  time for ratio of NAD(P)H in EM9-V versus EM9-XH5 cells to reach a plateau: ≤ 1 h
[8]
  MMS concentration at which increase in tail moment was detected (Comet assay): ~50 µM
[9]
  sensitivity to MMS (NAD(P)H depletion) among lymphoblastoid cell lines: wide variation in the sensitivity
